In one assay the target is T1, Adenosine receptor A3 (Homo sapiens, UniProt P0DMS8).
T1 sequence (P0DMS8 whole entry): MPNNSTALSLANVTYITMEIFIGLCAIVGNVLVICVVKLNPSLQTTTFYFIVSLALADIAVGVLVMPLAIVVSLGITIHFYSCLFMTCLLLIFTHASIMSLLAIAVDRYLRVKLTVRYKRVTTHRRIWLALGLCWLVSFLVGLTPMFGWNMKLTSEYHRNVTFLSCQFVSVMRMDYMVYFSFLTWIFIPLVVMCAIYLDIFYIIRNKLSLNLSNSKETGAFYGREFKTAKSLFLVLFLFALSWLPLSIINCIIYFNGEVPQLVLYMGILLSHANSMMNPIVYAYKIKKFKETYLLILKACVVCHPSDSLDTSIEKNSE

A further assay has as its target T2, Estrogen receptor (Homo sapiens, UniProt P03372).
T2 sequence (P03372 whole entry): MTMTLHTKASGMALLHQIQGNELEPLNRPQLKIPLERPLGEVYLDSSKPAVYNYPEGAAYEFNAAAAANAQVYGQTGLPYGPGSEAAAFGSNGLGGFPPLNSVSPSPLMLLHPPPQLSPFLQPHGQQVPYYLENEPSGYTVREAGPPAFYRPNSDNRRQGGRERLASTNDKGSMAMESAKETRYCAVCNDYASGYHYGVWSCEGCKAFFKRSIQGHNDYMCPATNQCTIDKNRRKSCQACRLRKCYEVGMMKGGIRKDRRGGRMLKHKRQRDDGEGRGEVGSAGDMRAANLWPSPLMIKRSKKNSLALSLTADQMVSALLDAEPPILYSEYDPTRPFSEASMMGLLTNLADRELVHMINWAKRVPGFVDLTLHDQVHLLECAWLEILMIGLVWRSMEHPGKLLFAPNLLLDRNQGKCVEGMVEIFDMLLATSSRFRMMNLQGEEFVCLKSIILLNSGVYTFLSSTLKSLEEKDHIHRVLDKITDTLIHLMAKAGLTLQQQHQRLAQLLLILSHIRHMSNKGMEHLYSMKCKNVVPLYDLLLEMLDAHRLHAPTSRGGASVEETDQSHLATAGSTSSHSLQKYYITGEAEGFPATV

The next assay concerns the target D(3) dopamine receptor (Homo sapiens, UniProt P35462).
In assay [1] the target is T3, Muscarinic acetylcholine receptor M1 (Homo sapiens, UniProt P11229).
T3 sequence (P11229 whole entry): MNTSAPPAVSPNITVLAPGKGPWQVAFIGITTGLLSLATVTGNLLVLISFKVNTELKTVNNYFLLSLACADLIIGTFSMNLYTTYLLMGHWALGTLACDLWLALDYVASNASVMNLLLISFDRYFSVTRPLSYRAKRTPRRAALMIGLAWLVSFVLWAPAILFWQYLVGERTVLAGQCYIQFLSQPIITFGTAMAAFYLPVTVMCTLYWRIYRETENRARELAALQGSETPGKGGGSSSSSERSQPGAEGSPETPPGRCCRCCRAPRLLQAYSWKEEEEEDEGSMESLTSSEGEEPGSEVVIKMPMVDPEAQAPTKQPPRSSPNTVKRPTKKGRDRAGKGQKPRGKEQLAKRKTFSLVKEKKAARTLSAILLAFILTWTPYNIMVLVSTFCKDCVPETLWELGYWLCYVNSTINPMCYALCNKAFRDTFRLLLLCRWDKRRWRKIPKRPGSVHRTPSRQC
Format: functional, cell-based.

The target of assay [2] is Sodium-dependent noradrenaline transporter (Homo sapiens, UniProt P23975).
Sodium-dependent noradrenaline transporter, sequence (P23975 whole entry): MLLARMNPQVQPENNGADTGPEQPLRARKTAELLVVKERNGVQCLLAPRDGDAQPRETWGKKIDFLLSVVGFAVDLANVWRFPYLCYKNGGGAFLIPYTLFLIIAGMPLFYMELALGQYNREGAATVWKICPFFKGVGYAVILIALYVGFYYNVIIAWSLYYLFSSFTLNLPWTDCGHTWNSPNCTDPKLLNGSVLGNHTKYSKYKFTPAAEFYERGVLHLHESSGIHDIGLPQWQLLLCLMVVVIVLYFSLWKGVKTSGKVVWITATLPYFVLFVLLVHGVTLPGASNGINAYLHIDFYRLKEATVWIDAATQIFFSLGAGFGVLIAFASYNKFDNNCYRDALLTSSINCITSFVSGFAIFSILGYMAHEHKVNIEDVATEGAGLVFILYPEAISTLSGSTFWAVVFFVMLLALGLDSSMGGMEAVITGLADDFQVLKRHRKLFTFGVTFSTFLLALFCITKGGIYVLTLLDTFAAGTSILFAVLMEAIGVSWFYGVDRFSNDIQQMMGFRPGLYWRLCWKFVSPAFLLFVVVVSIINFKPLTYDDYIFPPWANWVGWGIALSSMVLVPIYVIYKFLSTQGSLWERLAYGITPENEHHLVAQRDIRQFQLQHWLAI
The target of assay [3] is T4, Amine oxidase [flavin-containing] A (Homo sapiens, UniProt P21397).
T4 sequence (P21397 whole entry): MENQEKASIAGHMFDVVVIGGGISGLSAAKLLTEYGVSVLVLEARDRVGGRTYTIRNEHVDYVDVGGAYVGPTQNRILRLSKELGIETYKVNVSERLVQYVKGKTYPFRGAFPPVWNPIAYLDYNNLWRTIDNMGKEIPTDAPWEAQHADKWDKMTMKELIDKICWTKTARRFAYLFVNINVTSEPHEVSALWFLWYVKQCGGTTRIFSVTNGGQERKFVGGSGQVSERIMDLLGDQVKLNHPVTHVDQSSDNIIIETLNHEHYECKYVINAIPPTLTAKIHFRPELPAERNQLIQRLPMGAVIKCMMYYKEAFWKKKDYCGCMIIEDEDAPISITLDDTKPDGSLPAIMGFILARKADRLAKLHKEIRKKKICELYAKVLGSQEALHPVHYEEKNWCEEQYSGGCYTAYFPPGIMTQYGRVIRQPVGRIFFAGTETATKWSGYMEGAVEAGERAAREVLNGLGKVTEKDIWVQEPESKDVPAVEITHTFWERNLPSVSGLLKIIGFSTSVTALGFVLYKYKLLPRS
Format: functional.

In ChEMBL document CHEMBL5291721, “A preclinical secondary pharmacology resource illuminates target-adverse drug reaction associations of marketed drugs” (Nat Commun, 2023) one finds AC50 data, which are given here for six compounds.

Structures are written as SMILES.
Note: assay procedure not described here.

D(3) dopamine receptor, sequence (P35462 whole entry): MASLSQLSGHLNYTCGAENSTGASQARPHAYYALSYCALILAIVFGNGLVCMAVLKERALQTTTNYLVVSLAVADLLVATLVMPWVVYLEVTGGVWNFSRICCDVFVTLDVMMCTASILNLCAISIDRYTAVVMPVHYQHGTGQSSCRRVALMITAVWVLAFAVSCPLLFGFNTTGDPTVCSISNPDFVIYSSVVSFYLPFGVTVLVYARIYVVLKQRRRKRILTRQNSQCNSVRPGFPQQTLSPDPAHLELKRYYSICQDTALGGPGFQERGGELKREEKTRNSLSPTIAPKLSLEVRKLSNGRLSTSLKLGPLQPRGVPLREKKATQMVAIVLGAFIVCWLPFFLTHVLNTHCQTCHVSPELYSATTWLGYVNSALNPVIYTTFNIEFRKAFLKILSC

For orientation: AC50 means the concentration giving half of the maximal activity seen. A high value points to activity only at high concentration. As to `Cc1cc(C)cc(OCC2CNC(=O)O2)c1` (stereo unspecified) [METAXALONE], the AC50 at Adenosine receptor A3 is > 30 µM; at Estrogen receptor, > 30 µM; at D(3) dopamine receptor, > 30 µM; in assay [1] it was > 30 µM; in assay [2] it was 10.2 µM; in assay [3], 15.4 µM.

Take `NC(=O)C1(N2CCCCC2)CCN(CCCC(=O)c2ccc(F)cc2)CC1` [PIPAMPERONE]: the AC50 was > 30 µM on Adenosine receptor A3; > 30 µM at Estrogen receptor; 1.77 µM on D(3) dopamine receptor; > 30 µM in assay [1]; > 30 µM in assay [2]; > 30 µM in assay [3].

In the case of `CC(C)(Oc1ccc(Cl)cc1)C(=O)NC(=O)NCN1CCOCC1` [PLAFIBRIDE], the AC50 (at Adenosine receptor A3; at Estrogen receptor; at D(3) dopamine receptor; in assay [1]; in assay [2]; in assay [3]) was > 30 µM each time.

In the case of `CC(C)NC[C@H](O)COc1ccc(O)cc1` [PRENALTEROL], the AC50 at Adenosine receptor A3 was > 30 µM; on Estrogen receptor, > 30 µM; on D(3) dopamine receptor, > 30 µM; in assay [1] it was > 30 µM; in assay [2] it was 4.55 µM; in assay [3], > 30 µM.

`CN1CCC(N(Cc2cccs2)c2ccccc2)CC1` [THENALIDINE]: the AC50 at Adenosine receptor A3 is > 30 µM; on Estrogen receptor, > 30 µM; on D(3) dopamine receptor it was 4.46 µM; in assay [1], 0.762 µM; in assay [2], 0.399 µM; in assay [3] it was > 30 µM.

Consider `Cc1ccc(C(C)C)c(O)c1` [THYMOL], for which the half-maximal activity concentration (AC50) at Adenosine receptor A3 was > 30 µM; on Estrogen receptor it was > 30 µM; on D(3) dopamine receptor it was > 30 µM; in assay [1], 13.9 µM; in assay [2], 23.3 µM; in assay [3], > 30 µM.
